Data reported in patent US6958352B2, “Compounds for inhibiting insulin secretion and methods related thereto” (SmithKline Beecham Corporation, priority 2002, dated 2005).
Read-outs that look alike come from different tables or passages of the source.

Biological target: T1, mitochondrial calcium/sodium antiporter (Rattus norvegicus, UniProt Q6AXS0)
T1 sequence (Q6AXS0 1-585): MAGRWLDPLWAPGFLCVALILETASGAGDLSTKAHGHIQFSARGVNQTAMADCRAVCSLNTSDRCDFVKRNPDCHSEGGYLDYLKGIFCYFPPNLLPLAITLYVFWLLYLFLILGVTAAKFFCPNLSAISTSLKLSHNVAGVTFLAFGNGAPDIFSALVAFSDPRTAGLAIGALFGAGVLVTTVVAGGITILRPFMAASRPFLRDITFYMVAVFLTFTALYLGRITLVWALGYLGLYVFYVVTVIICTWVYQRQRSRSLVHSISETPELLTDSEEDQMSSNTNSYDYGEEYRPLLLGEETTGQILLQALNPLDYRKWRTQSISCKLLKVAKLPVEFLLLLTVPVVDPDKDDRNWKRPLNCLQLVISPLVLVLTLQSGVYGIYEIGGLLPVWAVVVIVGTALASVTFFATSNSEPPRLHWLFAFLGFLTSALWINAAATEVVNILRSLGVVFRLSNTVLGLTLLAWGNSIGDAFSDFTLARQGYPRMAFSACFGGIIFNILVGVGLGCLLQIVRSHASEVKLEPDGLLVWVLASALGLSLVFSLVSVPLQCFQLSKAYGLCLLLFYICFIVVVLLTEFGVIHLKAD
Test: Inhibition of mitochondrial calcium/sodium antiporter activity (NaCl-induced mitochondrial calcium efflux, calcium green 5N fluorescence)
Assay type: cell-based
Settings: digitonin-permeabilized INS-1 cells, 20 mM NaCl
Protocol: INS-1 rat insulinoma cells (see Example 16) were harvested by trypsinization, washed and resuspended at 10×10^6 cells/ml in assay buffer (250 mM sucrose, 10 mM HEPES, 2.5 mM K2HPO4, 5 mM succinate, pH 7.4) containing 0.007% digitonin, 60 μM CaCl2 and 0.05 μM calcium green 5N (Molecular Probes, Inc., Eugene, Oreg.). After a five-minute calcium loading incubation, ruthenium red (1 μM; Sigma, St. Louis, Mo.) was added to block further calcium uptake by mitochondria. Cell suspensions were dispensed into 96-well plates (100 μl per well, 1×10^6 cells per well) and candidate agents (i.e., candidate mitochondrial calcium/sodium antiporter inhibitors) were added to some sets of triplicate wells at concentrations of 1, 10 or 100 μM, while other sets of wells provided appropriate control conditions (e.g., buffer and vehicle controls). Baseline fluorescence measurements were made using a multiwell plate fluorimeter (F-MAX™, Molecular Devices Corp., Sunnyvale, Calif.; or PolarStar™, BMG Labtechnologies, Inc., Durham, N.C.) according to the manufacturer's instructions. Calcium efflux from mitochondria was then induced by adding NaCl to all wells to achieve a final concentration of 20 mM, and the rate of change in fluorescence in each well was monitored […] for two minutes and quantified using software included with the plate reader.

[1] = Table 2, preferred compounds, read-out: IC50 ≦ 10 μM
[2] = Table 3, more preferred compounds, read-out: IC50 ≦ 1 μM

SMILES | IC50 [1] | IC50 [2]
COC(=O)CSC(c1ccccc1C)c1cc(Cl)ccc1N (centres unmarked) [Compound 11aa] | ≤ 10 µM | ≤ 1 µM
COC(=O)CSC(c1cc(Cl)ccc1N)C1CCCCC1 (centres unmarked) [Compound 11ak] |  | ≤ 1 µM
COC(=O)CSC(CC(C)C)c1cc(Cl)ccc1N (centres unmarked) [Compound 11am] | ≤ 10 µM | 
COC(=O)CSC(CCCOCc1ccccc1)c1cc(Cl)ccc1N (centres unmarked) [Compound 11an] | ≤ 10 µM | 
COC(=O)CSC(c1cc(Cl)ccc1NC(=O)C(F)(F)F)c1c(C)cccc1C (centres unmarked) [Compound 11ba] | ≤ 10 µM | ≤ 1 µM
COC(=O)CSC(c1cc(Cl)ccc1N)c1sccc1C (centres unmarked) [Compound 11c] | ≤ 10 µM | 
COC(=O)CSC(c1cc(C)cc(C)c1)c1cc(Cl)ccc1N (centres unmarked) [Compound 11d] | ≤ 10 µM | ≤ 1 µM
COC(=O)CSC(c1nc2ccccc2s1)c1cc(Cl)ccc1N (centres unmarked) [Compound 11f] | ≤ 10 µM | 
COC(=O)CSC(c1cc(Cl)ccc1N)c1cccn1C (centres unmarked) [Compound 11h] | ≤ 10 µM | ≤ 1 µM
COC(=O)CSC(c1cccc(C)c1)c1cc(Cl)ccc1N (centres unmarked) [Compound 11i] | ≤ 10 µM | 
COC(=O)CSC(c1cc(Cl)ccc1N)c1cccc(C)c1C (centres unmarked) [Compound 11k] | ≤ 10 µM | 
COC(=O)CSC(c1ccc(C)c(C)c1)c1cc(Cl)ccc1N (centres unmarked) [Compound 11l] | ≤ 10 µM | 
COC(=O)CSC(c1cc(C)ccc1C)c1cc(Cl)ccc1N (centres unmarked) [Compound 11m] | ≤ 10 µM | 
COC(=O)CSC(c1ccccc1N)c1ccccc1Cl (centres unmarked) [Compound 11r] | ≤ 10 µM | 
COC(=O)CSC(c1cc(Cl)ccc1N)c1ccccc1Cl (centres unmarked) [Compound 11s] | ≤ 10 µM | ≤ 1 µM
COC(=O)CSC(c1ccccc1)c1cc([N+](=O)[O-])ccc1N (centres unmarked) [Compound 11t] | ≤ 10 µM | 
COC(=O)CSC(c1nccs1)c1cc(Cl)ccc1N (centres unmarked) [Compound 11u] | ≤ 10 µM | 
COC(=O)CSC(c1ccc(C)cc1C)c1cc(Cl)ccc1N (centres unmarked) [Compound 11w] | ≤ 10 µM | 
COC(=O)CSC(c1ccccc1)c1cc(Cl)ccc1N (centres unmarked) [Compound 11x] | ≤ 10 µM | 
CNC(=O)CSC(c1cc(Cl)ccc1N)c1ccccc1Cl (centres unmarked) [Compound 13a] | ≤ 10 µM | 
O=C(CSC(c1cc(Cl)ccc1O)c1ccccc1Cl)N1CCCCC1 (centres unmarked) [Compound 13ag] | ≤ 10 µM | 

SMILES | IC50 [1] | IC50 [2]
O=C(CSC(c1ccccc1)c1cc(Cl)ccc1O)N1CCCCC1 (centres unmarked) [Compound 13ai] | ≤ 10 µM | 
CN(C)C(=O)CSC(c1cc(Cl)ccc1N)c1ccccc1Cl (centres unmarked) [Compound 13b] | ≤ 10 µM | ≤ 1 µM
Nc1ccc(Cl)cc1C(SCC(=O)NCCc1ccccc1)c1ccccc1Cl (centres unmarked) [Compound 13c] | ≤ 10 µM | ≤ 1 µM
Nc1ccc(Cl)cc1C(SCC(=O)N1CCCCC1)c1ccccc1Cl (centres unmarked) [Compound 13d] | ≤ 10 µM | ≤ 1 µM
Nc1ccc(Cl)cc1C(SCC(=O)NCCO)c1ccccc1Cl (centres unmarked) [Compound 13e] | ≤ 10 µM | 
Nc1ccc(Cl)cc1C(SCC(=O)NCc1ccccc1)c1ccccc1Cl (centres unmarked) [Compound 13f] | ≤ 10 µM | ≤ 1 µM
CC(=O)NCCNC(=O)CSC(c1cc(Cl)ccc1N)c1ccccc1Cl (centres unmarked) [Compound 13g] | ≤ 10 µM | ≤ 1 µM
Nc1ccc(Cl)cc1C(SCC(=O)NC1CCCCC1)c1ccccc1Cl (centres unmarked) [Compound 13h] | ≤ 10 µM | ≤ 1 µM
Nc1ccc(Cl)cc1C(SCC(=O)NCC(c1ccccc1)c1ccccc1)c1ccccc1Cl (centres unmarked) [Compound 13i] | ≤ 10 µM | ≤ 1 µM
Nc1ccc(Cl)cc1C(SCC(=O)N1CCN(c2ccccc2)CC1)c1ccccc1Cl (centres unmarked) [Compound 13j] | ≤ 10 µM | ≤ 1 µM
CCCNC(=O)CSC(c1cc(Cl)ccc1N)c1ccccc1Cl (centres unmarked) [Compound 13k] | ≤ 10 µM | ≤ 1 µM
CCCCCCNC(=O)CSC(c1cc(Cl)ccc1N)c1ccccc1Cl (centres unmarked) [Compound 13l] | ≤ 10 µM | ≤ 1 µM
COCCCNC(=O)CSC(c1cc(Cl)ccc1N)c1ccccc1Cl (centres unmarked) [Compound 13m] | ≤ 10 µM | ≤ 1 µM
Nc1ccc(Cl)cc1C(SCC(=O)NCC1CCCCC1)c1ccccc1Cl (centres unmarked) [Compound 13n] | ≤ 10 µM | ≤ 1 µM
C#CCNC(=O)CSC(c1cc(Cl)ccc1N)c1ccccc1Cl (centres unmarked) [Compound 13o] | ≤ 10 µM | ≤ 1 µM
Nc1ccc(Cl)cc1C(SCC(=O)NCCCn1ccnc1)c1ccccc1Cl (centres unmarked) [Compound 13p] | ≤ 10 µM | ≤ 1 µM
CN(C)CCCNC(=O)CSC(c1cc(Cl)ccc1N)c1ccccc1Cl (centres unmarked) [Compound 13q] | ≤ 10 µM | 
Nc1ccc(Cl)cc1C(SCC(=O)NC1CC1)c1ccccc1Cl (centres unmarked) [Compound 13r] | ≤ 10 µM | ≤ 1 µM
Nc1ccc(Cl)cc1C(SCC(=O)NCCc1ccc(O)cc1)c1ccccc1Cl (centres unmarked) [Compound 13s] | ≤ 10 µM | ≤ 1 µM
Nc1ccc(Cl)cc1C(SCC(=O)NCCc1ccc(O)c(I)c1)c1ccccc1Cl (centres unmarked) [Compound 13t] | ≤ 10 µM | 
Nc1ccc(Cl)cc1C(SCC(=O)NCCc1cc(I)c(O)c(I)c1)c1ccccc1Cl (centres unmarked) [Compound 13u] | ≤ 10 µM | ≤ 1 µM

SMILES | IC50 [1] | IC50 [2]
NCCOCCOCCNC(=O)CSC(c1cc(Cl)ccc1N)c1ccccc1Cl (centres unmarked) [Compound 13v] | ≤ 10 µM | ≤ 1 µM
Nc1ccc(Cl)cc1C(SCc1nc(-c2ccc(F)cc2)no1)c1ccccc1Cl (centres unmarked) [Compound 14a] | ≤ 10 µM | 
Cc1noc(CSC(c2cc(Cl)ccc2N)c2ccccc2Cl)n1 (centres unmarked) [Compound 14b] | ≤ 10 µM | ≤ 1 µM
Cc1cc(C)cc(C(SCc2nc(C)no2)c2cc(Cl)ccc2N)c1 (centres unmarked) [Compound 14d] | ≤ 10 µM | 
Cc1noc(CSC(c2cccs2)c2cc(Cl)ccc2N)n1 (centres unmarked) [Compound 14g] | ≤ 10 µM | ≤ 1 µM
Cc1noc(CSC(c2cc(Cl)ccc2N)c2cccn2C)n1 (centres unmarked) [Compound 14h] | ≤ 10 µM | ≤ 1 µM
Cc1cccc(C(SCc2nc(C)no2)c2cc(Cl)ccc2N)c1 (centres unmarked) [Compound 14i] | ≤ 10 µM | 
Cc1noc(CSC(c2cc(Cl)ccc2N)c2cccc(C)c2C)n1 (centres unmarked) [Compound 14k] | ≤ 10 µM | ≤ 1 µM
Cc1noc(CSC(c2ccc(C)c(C)c2)c2cc(Cl)ccc2N)n1 (centres unmarked) [Compound 14l] | ≤ 10 µM | 
Cc1ccc(C)c(C(SCc2nc(C)no2)c2cc(Cl)ccc2N)c1 (centres unmarked) [Compound 14m] | ≤ 10 µM | 
Cc1ccc(C)c(C(SCc2nc(C)no2)c2cc(Cl)ccc2NC(=O)C(F)(F)F)c1 (centres unmarked) [Compound 14ma] | ≤ 10 µM | 
Cc1noc(CSC(c2ccccc2)c2cc([N+](=O)[O-])ccc2N)n1 (centres unmarked) [Compound 14t] | ≤ 10 µM | 
CCSC(c1cc(Cl)ccc1N)c1ccccc1Cl (centres unmarked) [Compound 15c] | ≤ 10 µM | ≤ 1 µM
Nc1ccc(Cl)cc1C(SCCO)c1ccccc1Cl (centres unmarked) [Compound 15d] | ≤ 10 µM | ≤ 1 µM
COC(=O)CCSC(c1cc(Cl)ccc1N)c1ccccc1Cl (centres unmarked) [Compound 15e] | ≤ 10 µM | ≤ 1 µM
Nc1ccc(Cl)cc1C(Sc1ccccn1)c1ccccc1Cl (centres unmarked) [Compound 15f] | ≤ 10 µM | ≤ 1 µM
Nc1ccc(Cl)cc1C(SCC(F)(F)F)c1ccccc1Cl (centres unmarked) [Compound 15i] | ≤ 10 µM | ≤ 1 µM
Nc1ccc(Cl)cc1C(SCCCO)c1ccccc1Cl (centres unmarked) [Compound 15k] | ≤ 10 µM | ≤ 1 µM
Nc1ccc(Cl)cc1C(SCCNC(=O)c1ccccc1)c1ccccc1Cl (centres unmarked) [Compound 16a] | ≤ 10 µM | ≤ 1 µM
